Source: article PMC7017074 (Cancers, 2020)
Values belong to the molecule of their own block, whether it stands above or below them.

Key:
[1] = Serum drug concentration following an intravenous injection; assay type: in vivo, Balb/c mice
Description: The mice were sacrificed after 2 h and 24 h of tail-vein injection (n = 5). The organs such as the liver, kidney, heart, spleen, lungs, and brain, as well as the tumor tissues, were isolated and kept in lysis buffer (pH 7.4) and kept at −150 °C in a freezer until further analysis. Additionally, the weights of all the organs and tumor tissues were measured for quantitative analysis of the presence of drug-loaded NPs.
To determine the serum level of total drug-loaded NPs, blood samples of all the mice treated (n = 5) were collected by cardiac puncture using a 1-mL syringe with a 25G needle. A secondary method of euthanasia was performed after a cardiac puncture to sacrifice the animal. The blood samples were collected at two time points of analysis (2 h and 24 h of treatment). The blood samples were allowed to clot by leaving them at room temperature and then centrifuged at 10,000 rpm for 30 min at 4 °C to collect the supernatant serum. Afterward, 100 µL of each serum sample was collected and stored at −80 °C until it was assayed. The fluorescence emission of serum was measured using Perkin Elmer 2030 manager software attached to a 2030 multilabel reader victor X5 (Perkin Elmer) at 485/535 nm. The data were illustrated as means ± SD in RFU/100 µL of serum.

[2] = Animal biodistribution study (organ and tumor distribution of DOX); assay type: in vivo, Balb/c mice; settings: for DOX in heart / DOX in kidney / DOX in liver / DOX in lungs / DOX in spleen / DOX in tumor: 4T1 tumor mice, IV DOX 5 mg/kg
[3] = tumor-bearing mice, 25 days, vs untreated group; CYP 0.3 mg/kg BW
[4] = test system: 4T1 cells; test: Tumor regression study in murine breast cancer model; assay type: in vivo, Balb/c mice

- serum drug concentration, 2 h (%) ([1]; 2 h, Supplementary Table 3): 2.02%
- serum drug concentration, 24 h (%) ([1]; 24 h, Supplementary Table 3): 1.71%
- serum drug concentration, 2 h ([1]; DOX 5 mg/kg, 2 h): 110.53 ± 11.83 ng/100 μL
- blood serum fluorescence, 2 h ([1]; DOX 5 mg/kg, 2 h (Figure 6)): 1008.3 ± 431.41 RFU/100 µL
- serum drug concentration, 24 h ([1]; DOX 5 mg/kg, 24 h): 93.74 ± 3.89 ng/100 μL
- DOX in heart ([2]; 2 h): 2.86 ± 0.23 ng/mg
- DOX in kidney ([2]; 2 h): 1.45 ± 0.01 ng/mg
- DOX in liver ([2]; 2 h): 0.3 ± 0.01 ng/mg
- DOX in lungs ([2]; 2 h): 0.11 ± 0.01 ng/mg
- DOX in spleen ([2]; 2 h): 0.13 ± 0.01 ng/mg
- DOX in tumor ([2]; 2 h): 0.37 ± 0.01 ng/mg
- DOX in tumor ([2]; 2 h, listed as free DOX): 0.37 ± 0.002 ng/mg
- DOX in heart ([2]; 24 h): 4.28 ± 0.63 ng/mg
- DOX in kidney ([2]; 24 h): 1.45 ± 0.01 ng/mg
- DOX in liver ([2]; 24 h): 1.18 ± 0.31 ng/mg
- DOX in lungs ([2]; 24 h): 0.14 ± 0.01 ng/mg
- DOX in spleen ([2]; 24 h): 0.14 ± 0.01 ng/mg
- DOX in tumor ([2]; 24 h): 0.37 ± 0.01 ng/mg
- organ distribution, brain (%) ([2]; 2 h, Supplementary Table 1): 0.13%
- organ distribution, heart (%) ([2]; 2 h, Supplementary Table 1): 0.41%
- organ distribution, kidney (%) ([2]; 2 h, Supplementary Table 1): 0.42%
- organ distribution, liver (%) ([2]; 2 h, Supplementary Table 1): 0.35%
- organ distribution, lungs (%) ([2]; 2 h, Supplementary Table 1): 0.08%
- organ distribution, spleen (%) ([2]; 2 h, Supplementary Table 1): 0.08%
- organ distribution, tumor (%) ([2]; 2 h, Supplementary Table 1): 0.08%
- organ distribution, brain (%) ([2]; 24 h, Supplementary Table 2): 0.47%
- organ distribution, heart (%) ([2]; 24 h, Supplementary Table 2): 0.62%
- organ distribution, kidney (%) ([2]; 24 h, Supplementary Table 2): 0.42%
- organ distribution, liver (%) ([2]; 24 h, Supplementary Table 2): 1.38%
- organ distribution, lungs (%) ([2]; 24 h, Supplementary Table 2): 0.08%
- organ distribution, spleen (%) ([2]; 24 h, Supplementary Table 2): 0.08%
- organ distribution, tumor (%) ([2]; 24 h, Supplementary Table 2): 0.08%
Structure (SMILES): COc1cccc2c1C(=O)c1c(O)c3c(c(O)c1C2=O)C[C@@](O)(C(=O)CO)C[C@@H]3O[C@H]1C[C@H](N)[C@H](O)[C@H](C)O1 [Free DOX, doxorubicin]

Structure (SMILES): O=P1(N(CCCl)CCCl)NCCCO1 (stereo not drawn) [free CYP, cyclophosphamide]
- body weight gain / visible toxicity [3]: significantly slowed the gain
- tumor size at first treatment ([4]; day 14 after tumor inoculation, when first treatment was administered): 145.89 ± 33.53 mm^3
- tumor size, times less than the untreated group ([4]; day 27): ~3.5
- tumor size ([4]; day 27, IV, three doses every two days from day 14, CYP 0.3 mg/kg where drug present): 633.33 ± 121.16 mm^3
